Measured values: patent US8017772B2, “Substituted tetrahydropyrrolopyrazine compounds and the use thereof in the treatment and/or inhibition of pain” (Gruenenthal GmbH, priority 2006, dated 2011)

How the values were obtained:
[1] = system: neuropathic pain (cold allodynia); experiment: Bennett model: neuropathic pain (chronic constriction injury, cold allodynia); assay type: in vivo, mouse or rat; conditions: i.v. administration, dose 10 mg/kg
Description: Bennett Model: Neuropathic Pain in the Mouse and in the Rat The study of activity in neuropathic pain was carried out in the Bennett model (chronic constriction injury; Bennett and Xie, 1988, Pain 33: 87-107). Sprague-Dawley rats weighing 140-160 g are provided, under Narcoren narcosis, with four loose ligations of the right nervus ischiaticus. NMRI mice weighing 16-18 g are provided, under Ketavet-Rompun narcosis, with three loose ligations of the right nervus ischiaticus. The animals develop hypersensitivity of the paw innervated by the damaged nerve, and after a one-week recovery phase, the hypersensitivity is quantified over a period of about four weeks by means of a 4° C. cold metal plate (cold allodynia). The animals are observed on the plate for a period of 2 min and the number of reactions of pulling away the damaged paw is measured. […] The size of the group is n=10, the significance of an anti-allodynic action (*=p<0.05) is determined by means of a variance analysis with repeated measurement and a post hoc analysis according to Bonferroni.

hKCNQ2/3 = hKCNQ2/3 (Homo sapiens, UniProt O43525+O43526); experiment: Fluorescence assay using a voltage sensitive dye (BMG); assay type: cell-based; conditions: agonistic activity at 10 μM, CHO-K1 cells expressing KCNQ2/3; read-out: BMG AG %@10 μm
Description: 11. Biological Data 12. Fluorescence Assay Using a Voltage Sensitive Dye
Human CHO-K1 cells expressing KCNQ2/3 channels are cultivated adherently at 37° C., 5% CO2 and 95% humidity in cell culture bottles (e.g. 80 cm^2 TC flasks, Nunc) with MEM Alpha Medium (1×, liquid, Invitrogen, #22571), 10% fetal calf serum (FCS) (Invitrogen, #10270-106, heat-inactivated) and the necessary selection antibiotics.
Before being sown out for the measurements, the cells are washed with a 1×DPBS buffer without Ca^2+/Mg^2+ (e.g. Invitrogen, #14190-094) and detached from the bottom of the culture vessel by means of Accutase (PAA Laboratories, #L11-007) (incubation with Accutase for 15 min at 37° C.). The cell count then present is determined using a CASY™ cell counter (TCC model, Schärfe System) in order subsequently to apply 20,000 cells/well/100 μl of the described nutrient medium to 96-well measuring plates of the Corning™ CellBIND™ type (Flat Clear Bottom Black Polystyrene Microplates, #3340). Incubation is then carried out for one hour at room temperature, without gassing or adjusting the humidity, followed by incubation for 24 hours at 37° C., 5% CO2 and 95% humidity.
The voltage-sensitive fluorescent dye from the Membrane Potential Assay Kit (Red™ Bulk format part R8123 for FLIPR, Molecular Devices™) is prepared by dissolving the contents of a vessel Membrane Potential Assay Kit Red Component A in 200 ml of extracellular buffer (ES buffer, 120 mM NaCl, 1 mM KCl, 10 mM HEPES, 2 mM CaCl2, 2 mM MgCl2, 10 mM glucose; pH 7.4). After removal of the nutrient medium, the cells are washed with 200 μl of ES buffer, then covered with a layer of 100 μl of the dye solution prepared above and incubated for 45 min at room temperature with the exclusion of light.
The fluorescence measurements are carried out with a BMG Labtech FLUOstar™ or BMG Labtech POLARstar™ instrument (525 nm excitation, 560 nm emission, Bottom Read mode). After incubation of the dye, […] of the test substances in the desired concentrations, or 50 μl of ES buffer for control purposes, are introduced into separate cavities of the measuring plate and incubated for 30 min at room temperature while being shielded from light. The fluorescence intensity of the dye is then measured for 5 min and the fluorescence value F1 of each well is thus determined at a given, constant time. 15 μl of a […] KCl solution ([…]) are then added to each well. The change in fluorescence is subsequently measured until all the relevant measured values have been obtained (mainly 5-30 min). At a given time after KCl application, a fluorescence value F2 is determined, in this case at the time of the fluorescence peak.
For calculation, the fluorescence intensity F2 is compared with the fluorescence intensity F1, and the agonistic activity of the target compound on the potassium channel is determined therefrom. F2 and F1 are calculated as follows:
[formula] In order to determine whether a substance has an agonistic effect,
[formula] for example, can be compared with
[formula] determined by adding to the reaction batch only the buffer solution instead of the substance to be tested, determining the value F1K of the fluorescence intensity, adding the potassium ions as described above and measuring a value F2K of the fluorescence intensity. Then F2K and F1K are calculated as follows: […]
A substance has an agonistic activity on the potassium channel when
[formula] is greater than
[formula] Independently of the comparison of
[formula] it is also possible to conclude that a target compound has agonistic activity if an increase in
[formula] is to be observed as the dosage of the target compound increases. Calculations of EC50 and IC50 values are carried out with the aid of “Prism 4” software (GraphPad Software™). The following compounds were tested by way of example: […]

[2] = system: mononeuropathic pain (mechanical allodynia); experiment: Chung model: mononeuropathic pain after spinal nerve ligation (mechanical allodynia); assay type: in vivo, Sprague-Dawley rats; conditions: Rattus norvegicus, iv; i.v. administration
Description: Chung Model: Mononeuropathic Pain after Spinal Nerve Ligation
Animals: Male Sprague-Dawley rats (140-160 g) from a commercial breeder (Janvier, Genest St. Isle, France) were kept under a 12:12 h light-dark rhythm. The animals received food and tap water ad libitum. A period of one week was observed between delivery of the animals and the operation. After the operation, the animals were tested several times over a period of 4-5 weeks, a washing-out time of at least one week being observed. Description of the model: Under pentobarbital narcosis (Narcoren®, 60 mg/kg i.p., Merial GmbH, Hallbergmoos, Germany), the left L5, L6 spinal nerves were exposed by removing a section of the paravertebral muscle and a section of the left spinous process of the L5 lumbar vertebral body. […] The pull-back threshold was measured on the ipsi- and/or contra-lateral rear paw by means of an electronic from Frey Filamentes (Somedic A B, Malmö, Sweden). […] The data were determined as % maximum possible effect (% MPE) from the preliminary tests on the individual animals (=0 MPE) and the test values of an independent sham control group (=100% MPE). […] The data were analyzed by variance analysis with repeated measurements and a post hoc analysis according to Bonferroni. […]

O=C(CCC(=O)N1CCn2cccc2C1c1ccccc1)NCc1cccc(C(F)(F)F)c1 (stereo not drawn) [Example 2, 4-oxo-4-(1-phenyl-3,4-dihydro-1H-pyrrolo[1,2-a]pyrazin-2-yl)-N-(3-trifluoromethyl-benzyl)-butyramide]
% MPE in the Bennett model [1]: 40 % MPE | activation at 10 µM (hKCNQ2/3): 84% | ED50 [2]: 2.8 mg/kg
